{"source": "patent US20190169134A1", "about": "“NOVEL CLASS OF QUINOLONE HETEROCYCLIC AROMATIC MOLECULES FOR CANCER TREATMENT” (RenoTarget Therapeutics, Inc., priority 2016, published 2019)", "key": {"[1]": {"tested_on": "HCC827OR16", "experiment": "Cell growth inhibition by SRB method", "type": "cell-based, human", "conditions": "Homo sapiens, AZD9291-resistant line, 72 hrs exposure", "description": "(§1) Six human cancer cell lines have been used to evaluate effects of the compounds on proliferation of cancer cells. These cell lines include HCC827-P (or HCC827 parent cells), human non-small lung cancer cells, Parent NSCLC HCC827 cell line (which harbors EGFR gene amplification, Exon 19 (E19) deletion, and Exon 21 mutation (Wang, Ramakrishnan et al. 2010), and is an EGFRi sensitive cell line (Kim, Kim et al. 2010)); HCC827-TR16 (Tarceva-resistant HCC727 cell line), HCC827-OR16 (AZD9291-resistant HCC727 cell line), LNCaP (human prostate cancer cells—a hormonal-therapy sensitive cell line (Wang, Liu et al. 1997)); 22RV1 (human prostate cancer cells—a hormonal-therapy resistant cell line (Sramkoski, Pretlow et al. 1999)); and ACHN (human renal adenocarcinoma cells (Park, Jung et al. 2003)). LNCaP cells and 22RV1 cells were purchased from the American Type Culture Collection (Rockville, Md.) and others were gifts of friends.\n(§2) To evaluate activities of new compounds on growth of EGFR-inhibitor-resistant cells, two EGFRi-resistant cell lines, i.e., HCC827-TR16 and HCC827-OR16 were established using a method described by Eberlein et al. (Eberlein, Stetson et al. 2015). […] Resistant cells were collected and stabilized after 5 weeks (cycle 5). […] The resistant cells were sorted using 96-well dishes by culturing cells with density of 0.1, 1, 10, and 100 cells per well.\n(§3) All cell lines were maintained in RPMI-1640 (GIBCO, Gaithersburg, Md.) with 10% heat-inactivated bovine serum (FBS) (Wang, Ossowski et al. 2004).\n(§4) Sulforhodamine B (SRB) was used to estimate cell growth as described previously (Skehan, Storeng et al. 1990). Briefly, cells grown exponentially were aliquoted into 96-well plates at a density of 2,500 to 5,000 cells/200 μl per well in RPMI 1640 medium containing 10% FBS. After twenty-four hours, the cells were exposed to indicated concentrations of tested compounds for 72 hrs or otherwise as indicated. The cells were then fixed with 10% trichloride acetic acid for 2 h at 4° C. The 10% trichloride acetic acid was removed, and the dishes were washed 5 times with tape water, and air-dried. The fixed and dried cells were then stained with 0.4% SRB in 1% acetic acid for 25 min, and the dishes were washed 5 times with 1% acetic acid and air-dried overnight. 200 μl of 10 mM of Tris buffer (pH 10.0) were added, and the dishes were rotated to completely dissolve the color. Absorbance at 570 nm, with a reference wavelength 690 nm, was measured on a 96-well microplate reader (SPECTRO Star^Nano, BMG Labtech). Mean, standard deviation (SD) and the percent of growth inhibition at each concentration point of the treatment were calculated. The percent of growth inhibition as defined as (1−T/C)×100 where T is the mean of the absorbance at 570 nm from the treatment, and C from control (drug vehicle only). IC50 was calculated using Sigma-plot software by regression of growth-concentration curve from each drug treatment."}, "[2]": {"tested_on": "HCC827P", "experiment": "Cell growth inhibition by SRB method", "type": "cell-based, human", "conditions": "Homo sapiens; 72 hrs exposure, SRB", "description": "as §1, §2, §3, §4"}, "[3]": {"target": "T1, CDK7 (Homo sapiens, UniProt P50613)", "T1 construct": "made in house; host or cells: cell-free system (rabbit reticulocyte lysate)", "experiment": "KinaseSeeker competition binding assay", "protocol": "(§5) Compound Reno647 was profiled against the following panel of kinases at 2 μM using the KinaseSeeker™ assay: ABL1, AKT1, AKT2, AKT3, ALK, AURKA, AXL, BRAF, BTK, CDK2, CDK5, CDK7, CDK8, CSF1R, DDR1, EGFR del L747-P753 InsS, EGFR (L861Q), EGFR (G719S), EGFR, EGFR (L858R), EPHA2, EPHB2, FGFR3, FLT1/VEGFR1, FLT2/FGFR1, FLT3, FLT4/VEGFR3, GSK-3a, HER2, IGF1R, INSR, KIT, LIMK1, MET, MLK2/MAP3K10, RPS6KA5/MSK1, MUSK, p38a/MAPK12, PDGFRA, PDGFRB, PDK1, RET, RIPK2, RPS6KA1/RSK1, SRC, TEC, TESK1, TRKB, VEGFR2, and YES 1.\n(§6) KinaseSeeker is a homogeneous competition binding assay where the displacement of an active site dependent probe by an inhibitor is measured by a change in luminescence signal (see FIG. 7). Luminescence readout translates into a highly sensitive and robust assay with low background and minimal interference from test compounds.\n(§7) (Jester, Cox et al. 2010; Jester, Gaj et al. 2012): 10 mM stock of compound Reno647 was diluted in DMSO to a concentration of 50 μM. Prior to initiating a profiling campaign, the compound was evaluated for false positive against split-luciferase. The compound was then screened in duplicate against each of the kinases. For kinase assays, each Cfluc-Kinase was translated along with Fos-Nfluc using a cell-free system (rabbit reticulocyte lysate) at 30° C. for 90 min. A 24 μL aliquot of this lysate containing either 1 μL of DMSO (for no-inhibitor control) or compound solution in DMSO (2 LM final concentration) was incubated for 30 minutes at room temperature followed by 1 hour in the presence of a kinase specific probe. A 80 μL of luciferin assay reagent was added to each solution and luminescence was immediately measured on a luminometer.\n(§8) The % Inhibition and % Activity Remaining were calculated using the following equations:\n(§9) % inhibition=(ALUcontrol−ALUsample)×100\n(§10) % activity=100−% inhibition."}, "[4]": {"target": "T2, CSF1R (Homo sapiens, UniProt P07333)", "T2 construct": "made in house; host or cells: cell-free system (rabbit reticulocyte lysate)", "T2 sequence (P07333 20-972)": "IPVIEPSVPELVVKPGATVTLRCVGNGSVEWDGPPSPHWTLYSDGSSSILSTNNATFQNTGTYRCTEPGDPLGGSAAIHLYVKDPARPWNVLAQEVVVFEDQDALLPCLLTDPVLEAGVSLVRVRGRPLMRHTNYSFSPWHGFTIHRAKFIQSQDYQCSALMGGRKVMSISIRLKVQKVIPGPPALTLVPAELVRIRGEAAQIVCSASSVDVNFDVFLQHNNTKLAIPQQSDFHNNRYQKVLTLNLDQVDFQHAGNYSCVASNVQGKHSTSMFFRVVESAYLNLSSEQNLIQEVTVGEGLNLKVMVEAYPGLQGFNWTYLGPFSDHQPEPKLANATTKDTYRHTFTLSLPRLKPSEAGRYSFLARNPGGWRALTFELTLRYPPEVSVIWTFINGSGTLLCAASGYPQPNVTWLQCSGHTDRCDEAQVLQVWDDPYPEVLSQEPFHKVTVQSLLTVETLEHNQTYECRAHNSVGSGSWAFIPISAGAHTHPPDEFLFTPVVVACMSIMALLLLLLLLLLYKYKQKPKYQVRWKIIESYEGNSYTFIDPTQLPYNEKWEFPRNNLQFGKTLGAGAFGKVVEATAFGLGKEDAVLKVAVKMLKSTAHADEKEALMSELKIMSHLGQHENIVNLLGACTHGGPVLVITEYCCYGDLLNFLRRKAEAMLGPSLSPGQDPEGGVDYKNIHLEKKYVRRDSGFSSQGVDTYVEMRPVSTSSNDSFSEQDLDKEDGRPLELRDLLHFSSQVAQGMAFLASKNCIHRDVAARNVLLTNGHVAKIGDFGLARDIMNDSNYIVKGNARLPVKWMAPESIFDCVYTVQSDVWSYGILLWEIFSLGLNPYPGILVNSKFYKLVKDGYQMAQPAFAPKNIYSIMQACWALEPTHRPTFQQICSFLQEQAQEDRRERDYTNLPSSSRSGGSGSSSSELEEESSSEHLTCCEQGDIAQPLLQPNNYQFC", "experiment": "KinaseSeeker competition binding assay", "protocol": "as §5, §6, §7, §8, §9, §10"}, "[5]": {"target": "T3, MSK1 (Homo sapiens, UniProt O75582)", "T3 construct": "made in house; host or cells: cell-free, rabbit reticulocyte lysate", "T3 sequence (O75582 whole entry)": "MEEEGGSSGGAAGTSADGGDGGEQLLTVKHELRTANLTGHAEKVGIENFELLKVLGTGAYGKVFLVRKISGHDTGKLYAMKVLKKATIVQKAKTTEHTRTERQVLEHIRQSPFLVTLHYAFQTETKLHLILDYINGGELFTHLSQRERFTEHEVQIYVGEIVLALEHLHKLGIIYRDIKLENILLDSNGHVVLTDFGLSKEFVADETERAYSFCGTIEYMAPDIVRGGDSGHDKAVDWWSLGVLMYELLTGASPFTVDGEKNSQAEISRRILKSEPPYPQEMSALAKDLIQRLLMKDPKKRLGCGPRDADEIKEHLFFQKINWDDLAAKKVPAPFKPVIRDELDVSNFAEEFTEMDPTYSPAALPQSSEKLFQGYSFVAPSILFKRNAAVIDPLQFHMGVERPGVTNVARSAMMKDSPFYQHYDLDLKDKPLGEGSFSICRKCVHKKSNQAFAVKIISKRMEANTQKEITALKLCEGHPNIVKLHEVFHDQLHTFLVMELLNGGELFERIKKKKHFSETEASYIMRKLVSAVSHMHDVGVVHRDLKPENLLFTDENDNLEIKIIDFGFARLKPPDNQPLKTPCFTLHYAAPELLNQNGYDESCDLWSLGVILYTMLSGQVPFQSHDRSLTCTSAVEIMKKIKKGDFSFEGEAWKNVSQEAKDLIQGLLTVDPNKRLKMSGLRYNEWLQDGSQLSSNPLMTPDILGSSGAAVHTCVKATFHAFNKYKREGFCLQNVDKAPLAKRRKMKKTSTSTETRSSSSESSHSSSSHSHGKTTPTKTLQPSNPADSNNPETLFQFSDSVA", "experiment": "KinaseSeeker competition binding assay", "protocol": "as §5, §6, §7, §8, §9, §10"}, "[6]": {"tested_on": "HCC827 P cells", "experiment": "Western blot of EGFR downstream signaling", "type": "cell-based, human", "conditions": "24 hrs", "protocol": "The cells were washed with PBS, harvested and cellular proteins were extracted. […] Protein or phosphor-protein levels of pEGFRTyr1068, pEGFRTry845, pAktSer473, pStat3Tyr705, MEK1/2, pMEK1/2, p27, and pp70 S6 kinase 2 were determined by Western blot using specific antibodies. β-actin was used as loading control.\nHCC827 P or other indicated cells at exponential growth phase were treated with indicated compounds for 24 hrs. The cells were washed with PBS, harvested and cellular proteins were extracted."}}, "data": [{"smiles": "C#Cc1cccc(Nc2ncnc3cc(OCCOC)c(NC(=O)c4ccc(F)c([N+](=O)[O-])c4)cc23)c1", "note": "[Reno647, 4-Fluoro-N-[4-(3-ethynyl-phenylamino)-7-(2-methoxy-ethoxy)-quinazolin-6-yl]-3-nitro-benzamide]", "values": [{"measurement": "IC50", "setting": "[1]", "value": 380, "unit": "nM"}, {"measurement": "IC50", "setting": "[2]", "value": 150, "unit": "nM"}, {"measurement": "remaining binding at 2 µM", "setting": "[3]", "value": 95.5, "unit": "%"}, {"measurement": "remaining binding at 2 µM", "setting": "[4]", "value": 97.6, "unit": "%"}, {"measurement": "remaining binding at 2 µM", "setting": "[5]", "value": 100, "unit": "%"}, {"measurement": "Phospho-Akt level", "setting": "[6]", "value": "significantly reduced"}, {"measurement": "level of pEGFRTyr845", "setting": "[6]", "value": "significantly decreased"}, {"measurement": "level of pEGFRTyr1068", "setting": "[6]", "value": "significantly decreased"}, {"measurement": "level of pERK1/2 (Ras/Raf/MEK pathway)", "setting": "[6]", "value": "significant decrease"}, {"measurement": "p27 level", "setting": "[6]", "value": "induction"}, {"measurement": "pp-70-6S activity (p70-S6 activation)", "setting": "[6]", "value": "significant decreases"}, {"measurement": "total MEK1/2 protein level", "setting": "[6]", "value": "no changes"}]}]}
